This is an account of results in patent US20240228494A1, “COMPOUNDS” (PATHIOS THERAPEUTICS LIMITED, priority 2021, published 2024).

Where two headings read alike, the source gives them in different places.

The test has as its target human recombinant GPR65 (Homo sapiens, UniProt Q8IYL9). Put plainly: Human GPR65 cAMP HTRF antagonist assay. The test is classed as cell-based. An excerpt: In one preferred embodiment, the compound prevents the increase in cytoplasmic cAMP levels expected following GPR65 activation at acidic pH. This prevention of cAMP accumulation in turn prevents downstream signalling through ICER, as described above. The “Human GPR65 cyclic adenosine monophosphate (cAMP) Homogeneous Time Resolved Fluorescence (HTRF) antagonist assay”, or simply “cAMP assay”, as described in the accompanying examples, can be used to measure the potency of GPR65 modulators, which is expressed as the concentration of compound required to reduce the increase in cAMP concentration upon GPR65 activation by 50% (i.e. an IC50).
Human GPR65 Cyclic Adenosine Monophosphate (cAMP) Homogeneous Time Resolved Fluorescence (HTRF) Antagonist Assay Procedure
IC50 data was obtained by the following procedure:
1321N1 human astrocytoma cells stably expressing human recombinant GPR65 (1321N1-hrGPR65 cells, EuroscreenFast) were cultured according to the vendor's instructions.
Compounds were tested for their ability to antagonise GPR65, through measuring the concentration of cytoplasmic cAMP following treatment of the cells at a pH of 7.2 to activate GPR65 signalling and addition of the compound to be tested. The extent to which the expected rise in cAMP concentration upon GPR65 activation was suppressed by the added compound is indicative of its potency. The assay was carried out according to EuroscreenFast assay methodology as follows.
On the day of the assay, test compounds were added to 384-well, low volume, white microtiter plates by acoustic dispensing. KRH buffer (5 mM KCl, 1.25 mM MgSO4, 124 mM NaCl, 25 mM HEPES, 13.3 mM Glucose, 1.25 mM KH2PO4 and 1.45 mM CaCl2) was adjusted to pH 6.5, pH 7.6 and pH 8.4 by adding NaOH. 1321N1-hGPR65 cells were rapidly thawed and diluted in KRH, pH 7.6 prior to centrifugation at 300×g for 5 min and resuspension in assay buffer (KRH, pH 7.6, supplemented with 1 mM 3-isobutyl-1-methylxanthine (IBMX) and 200 μM ethylenediaminetetraacetic acid (EDTA)). Cells were added to assay plates at a density of 2,000 cells per well in a volume of 5 μl. Assay plates were briefly centrifuged at 100×g and then incubated at room temperature for 30 min. Cells were stimulated by the addition of 5 μL KRH, pH 6.5, to achieve an assay pH of 7.2, while control wells received 5 μl KRH, pH 8.4 to achieve an assay pH of 7.9. Assay plates were briefly centrifuged at 100×g and then incubated at room temperature for 30 min.
Accumulation of cAMP was detected by cAMP HTRF kit (Cisbio). d2-labeled cAMP and cryptate-labeled anti-cAMP antibody in Lysis and Detection Buffer (Cisbio) were added to assay plates, and the plates were incubated at room temperature for 1 h. HTRF measurements were performed using a Pherastar FSX instrument. Acceptor and donor emission signals were measured at 665 nm and 620 nm, respectively, and HTRF ratios were calculated as signal665 nm/signal620 nm×10^4. Data were normalised to high and low control values and fitted with 4-parameter logistic regression to determine hGPR65 IC50 values for the test compounds, which are shown in Table 1.
(In general: In TR-FRET formats the signal depends on donor and acceptor labels being close together.)

The mark [1] stands for this setting: 1321N1-hrGPR65 cells, assay pH 7.2, suppression of cAMP rise, read-out: hGPR65 IC50.

Chain of human recombinant GPR65 (Q8IYL9 whole entry): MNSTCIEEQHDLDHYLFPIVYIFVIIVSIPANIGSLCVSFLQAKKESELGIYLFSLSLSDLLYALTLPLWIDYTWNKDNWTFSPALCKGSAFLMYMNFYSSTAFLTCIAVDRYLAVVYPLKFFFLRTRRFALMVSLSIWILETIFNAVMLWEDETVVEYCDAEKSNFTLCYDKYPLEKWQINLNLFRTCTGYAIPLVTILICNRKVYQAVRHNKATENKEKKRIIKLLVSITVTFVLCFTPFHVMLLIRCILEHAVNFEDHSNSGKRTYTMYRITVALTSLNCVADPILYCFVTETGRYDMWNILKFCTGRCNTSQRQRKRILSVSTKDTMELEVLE

The IC50 is the concentration that gives 50% inhibition. On to `Fc1cc(C(F)(F)F)c(Br)cc1NC(=S)N1[C@H]2CC[C@@H]1c1ccnc(F)c1C2` [Compound 1, (5R,8S)—N-(5-Bromo-2-fluoro-4-(trifluoromethyl)phenyl)-1-fluoro-6,7,8,9-tetrahydro-5H-5,8-epiminocyclohepta[c]pyridine-10-carbothioamide], for which the IC50 was below 500 nM.

On to `N#C/N=C(/Nc1cc(Cl)c(Cl)cc1F)N1[C@H]2CC[C@@H]1c1ccnc(F)c1C2` [Compound 12, (5R,8S)-N′-cyano-N-(4,5-dichloro-2-fluorophenyl)-1-fluoro-6,7,8,9-tetrahydro-5H-5,8-epiminocyclohepta-[c]pyridine-10-carboximidamide], for which the IC50 is below 500 nM.

In the case of `O=C(Oc1ccc(Cl)c(Cl)c1)N1C2CCC1c1cncnc1C2` (racemic) [Compound 10, 3,4-dichlorophenyl (±)-6,7,8,9-tetrahydro-5H-5,8-epiminocyclohepta-[d]pyrimidine-10-carboxylate], the 50% inhibitory concentration (IC50) lay within 500 to 5000 nM.

On to `CO/N=C(\Nc1cc(Cl)c(Cl)cc1F)N1[C@H]2CC[C@@H]1c1ccnc(F)c1C2` [Compound 16, (5R,8S)—N-(4,5-dichloro-2-fluorophenyl)-1-fluoro-N′-methoxy-6,7,8,9-tetrahydro-5H-5,8-epiminocyclohepta[c]pyridine-10-carboximidamide], for which the IC50 is below 500 nM.

In the case of `O=C(C(O)c1ccc(Cl)c(Cl)c1)N1[C@H]2CC[C@@H]1c1ccnc(F)c1C2` (single isomer, unassigned) [Compound 7], the IC50 under setting [1] is above 5000 nM.

Regarding `O=c1cc2c(c[nH]1)[C@H]1CC[C@@H](C2)N1C(=S)Nc1cc(Cl)c(C(F)(F)F)cc1F` [Compound 2, (6S,9R)-N-(5-Chloro-2-fluoro-4-(trifluoromethyl)phenyl)-3-oxo-3,5,6,7,8,9-hexahydro-2H-6,9-epiminocyclohepta[c]pyridine-10-carbothioamide], the half-inhibitory concentration (IC50) was below 500 nM.

As for `N=C(Nc1cc(Cl)c(Cl)cc1F)N1[C@H]2CC[C@@H]1c1ccnc(F)c1C2` [Compound 17, (5R,8S)—N′-(4,5-dichloro-2-fluorophenyl)-1-fluoro-6,7,8,9-tetrahydro-5H-5,8-epiminocyclohepta[c]pyridine-10-carboximidamide], the IC50 under setting [1] was above 5000 nM.

Regarding `N#C/N=C(/Nc1cc(C(F)(F)F)c(Cl)cc1F)N1[C@H]2CC[C@@H]1c1ccnc(F)c1C2` [Compound 11, (5R,8S)-N-(4-Chloro-2-fluoro-5-(trifluoromethyl)phenyl)-N′-cyano-1-fluoro-6,7,8,9-tetrahydro-5H-5,8-epimino-cyclohepta[c]pyridine-10-carboximidamide], the IC50 is below 500 nM.

On to `S=C(Nc1ccc(Cl)c(Cl)c1)N1C2CCC1c1cncnc1C2` (racemic) [Compound 5, (±)-N-(3,4-dichlorophenyl)-6,7,8,9-tetrahydro-5H-5,8-epiminocyclo-hepta[d]pyrimidine-10-carbothioamide], for which the IC50 is below 500 nM.

`Fc1cc(Cl)c(Cl)cc1NC(=S)N1[C@H]2CC[C@@H]1c1ccnc(F)c1C2` [Compound 3, (5R,8S)-N-(4,5-dichloro-2-fluorophenyl)-1-fluoro-6,7,8,9-tetrahydro-5H-5,8-epiminocyclo-hepta[c]pyridine-10-carbothioamide]: the IC50 is below 500 nM.

With `N#C/N=C(\Nc1ccc(Cl)c(Cl)c1)N1[C@H]2CC[C@@H]1c1ccnc(F)c1C2` [Compound 6, (5R,8S,)—N′-Cyano-N-(3,4-dichlorophenyl)-1-fluoro-6,7,8,9-tetrahydro-5H-5,8-epiminocyclohepta[c]pyridine-10-carboximidamide], the IC50 is below 500 nM.

As to `Fc1cc(Cl)c(Cl)cc1CN1[C@H]2CC[C@@H]1c1ccnc(F)c1C2` [Compound 9, (5R,8S)-10-(4,5-dichloro-2-fluorobenzyl)-1-fluoro-6,7,8,9-tetrahydro-5H-5,8-epiminocyclohepta[c]pyridine], the IC50 was in the range of 500 to 5000 nM.

For `O/N=C(\Nc1cc(Cl)c(Cl)cc1F)N1[C@H]2CC[C@@H]1c1ccnc(F)c1C2` [Compound 15, (5R,8S)—N-(4,5-dichloro-2-fluorophenyl)-1-fluoro-N′-hydroxy-6,7,8,9-tetrahydro-5H-5,8-epiminocyclohepta[c]pyridine-10-carboximidamide], the IC50 is below 500 nM.

With `O=C(C(=O)N1[C@H]2CC[C@@H]1c1ccnc(F)c1C2)c1ccc(Cl)c(Cl)c1` [Compound 13, 1-(3,4-Dichlorophenyl)-2-((5R,8S)-1-fluoro-6,7,8,9-tetrahydro-5H-5,8-epiminocyclohepta[c]pyridin-10-yl)ethane-1,2-dione], the IC50 fell in the range of 500 to 5000 nM.

For the compound `O=C(Cc1ccc(Cl)c(Cl)c1)N1[C@H]2CC[C@@H]1c1ccnc(F)c1C2` [Compound 8, 2-(3,4-dichlorophenyl)-1-((5R,8S)-1-fluoro-6,7,8,9-tetrahydro-5H-5,8-epimino-cyclohepta[c]pyridin-10-yl)ethan-1-one], the IC50 under setting [1] lay in the range of 500 to 5000 nM.

Take `Fc1cc(C(F)(F)F)c(Cl)cc1NC(=S)N1[C@H]2CC[C@@H]1c1ccnc(F)c1C2` [Compound 4, (5R,8S)-N-(5-chloro-2-fluoro-4-(trifluoromethyl)phenyl)-1-fluoro-6,7,8,9-tetrahydro-5H-5,8-epiminocyclohepta[c]pyridine-10-carbothioamide]: the IC50 was below 500 nM.
